Assay results as given in patent publication US11339171B2, “MDM2 inhibitors” (Gan & Lee Pharmaceuticals, priority 2017, dated 2022).

Legend:
[1] = biological target: T1, MDM2 (Homo sapiens, UniProt Q00987); assay: Inhibition test of MDM2-P53 (GST-MDM2, Biotin-P53, Anti-GST-Tb, SA-XL665); type: binding
T1 construct: made in house
In short: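 Binding was measured by TR-FRET with GST-MDM2 at 4 nM final in PBS with 0.1% BSA, 5 mM DTT and 1 mM AEBSF. Compounds were tested as twelve-point 5-fold dilutions and incubated with the detection mix for 90 min at 25 °C with shaking before plate-reader reading and curve fitting.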

[2] = test system: human osteosarcoma cell line SJSA-1; assay: Inhibition of proliferation of human osteosarcoma cell line SJSA-1 (DAPI staining, In Cell Analyzer); settings: Homo sapiens, SJSA-1, 72 h, read-out: IC50 (nM), inhibitory activity on proliferation of human osteosarcoma cell line SJSA-1, SJSA-1, incubated 72 h

T1 sequence (Q00987 whole entry): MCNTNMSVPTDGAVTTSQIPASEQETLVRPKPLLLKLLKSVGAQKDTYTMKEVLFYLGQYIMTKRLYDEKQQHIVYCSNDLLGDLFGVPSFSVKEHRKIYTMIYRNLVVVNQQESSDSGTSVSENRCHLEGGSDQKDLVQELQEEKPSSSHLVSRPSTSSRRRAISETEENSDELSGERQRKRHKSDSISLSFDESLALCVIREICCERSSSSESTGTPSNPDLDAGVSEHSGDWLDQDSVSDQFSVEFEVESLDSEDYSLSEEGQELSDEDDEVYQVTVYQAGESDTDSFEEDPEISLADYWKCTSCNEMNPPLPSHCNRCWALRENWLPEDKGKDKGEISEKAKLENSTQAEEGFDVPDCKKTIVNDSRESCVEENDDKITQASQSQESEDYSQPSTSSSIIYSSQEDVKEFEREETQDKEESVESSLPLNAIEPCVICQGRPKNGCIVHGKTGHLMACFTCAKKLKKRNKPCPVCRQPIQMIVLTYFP

Structure (SMILES)	IC50 [1] [µM]	IC50 [2] [nM]
CCOc1ncc(-c2nc3c(n2C(C)C)[C@]2(C(=O)Nc4cc(Cl)ccc42)N(c2cc(Cl)ccc2C)C3=O)c(OC)n1 [Example R-127, (R)-6-chloro-5′-(5-chloro-2-methylphenyl)-2′-(2-ethoxy-4-methoxypyrimidin-5-yl)-3′-isopropyl-3′H-spiro[dihydroindole-3,4′-pyrrolo[3,4-d]imidazole]-2,6′(5′H)-dione]	0.091	1570
COc1nc(OCCF)ncc1-c1nc2c(n1C(C)C)[C@]1(C(=O)Nc3cc(Cl)ccc31)N(c1cc(Cl)ccc1C)C2=O [Example R-140, (R)-6-chloro-5′-(5-chloro-2-methylphenyl)-2′-(2-(2-fluoroethoxy)-4-methoxypyrimidin-5-yl)-3′-isopropyl-3′H-spiro[dihydroindole-3,4′-pyrrolo[3,4-d]imidazole]-2,6′(5′H)-dione]	0.147	863
COc1cc(C2CC2)ncc1-c1nc2c(n1C(C)C)[C@]1(C(=O)Nc3cc(Cl)ccc31)N(c1cc(Cl)cnc1C)C2=O [Example R-143, (R)-6-chloro-5′-(5-chloro-2-methylpyridin-3-yl)-2′-(6-cyclopropyl-4-methoxypyridin-3-yl)-3′-isopropyl-3′H-spiro[dihydroindole-3,4′-pyrrolo[3,4-d]imidazole]-2,6′(5′H)-dione]	0.214	6220
COc1cc(C(F)(F)F)ccc1-c1nc2c(n1C(C)C)[C@]1(C(=O)Nc3cc(Cl)ccc31)N(c1cc(Cl)cnc1C)C2=O [Example R-144, (R)-6-chloro-5′-(5-chloro-2-methylpyridin-3-yl)-3′-isopropyl-2′-(2-methoxy-4-(trifluoromethyl)phenyl)-3′H-spiro[dihydroindole-3,4′-pyrrolo[3,4-d]imidazole]-2,6′(5′H)-dione]	0.119	2450
COc1nc(OCC(F)F)ncc1-c1nc2c(n1C(C)C)[C@]1(C(=O)Nc3cc(Cl)ccc31)N(c1cc(Cl)ccc1C)C2=O [Example R-147, (R)-6-chloro-5′-(5-chloro-2-methylphenyl)-2′-(2-(2,2-difluoroethoxy)-4-methoxypyrimidin-5-yl)-3′-isopropyl-3′H-spiro[dihydroindole-3,4′-pyrrolo[3,4-d]imidazole]-2,6′(5′H)-dione]	0.119	5740
COc1cc(OC(F)F)ncc1-c1nc2c(n1C(C)C)[C@]1(C(=O)Nc3cc(Cl)ccc31)N(c1cc(Cl)ccc1C)C2=O [Example R-150, (R)-6-chloro-5′-(5-chloro-2-methylphenyl)-2′-(6-(difluoromethoxy)-4-methoxypyridin-3-yl)-3′-isopropyl-3′H-spiro[dihydroindole-3,4′-pyrrolo[3,4-d]imidazole]-2,6′(5′H)-dione]	0.377	5700
COc1cc(N(C)C)ncc1-c1nc2c(n1C(C)C)[C@]1(C(=O)Nc3cc(Cl)ccc31)N(c1cc(Cl)cnc1C)C2=O [Example R-155, (R)-6-chloro-5′-(5-chloro-2-methylpyridin-3-yl)-2′-(6-(dimethylamino)-4-methoxypyridin-3-yl)-3′-isopropyl-3′H-spiro[dihydroindole-3,4′-pyrrolo[3,4-d]imidazole]-2,6′(5′H)-dione]	0.0964	1520
COc1nc(N(C)C)ccc1-c1nc2c(n1C(C)C)[C@]1(C(=O)Nc3cc(Cl)ccc31)N(c1cc(Cl)ccc1C)C2=O [Example R-157, (R)-6-chloro-5′-(5-chloro-2-methylphenyl)-2′-(6-(dimethylamino)-2-methoxypyridin-3-yl)-3′-isopropyl-3′H-spiro[dihydroindole-3,4′-pyrrolo[3,4-d]imidazole]-2,6′(5′H)-dione]	0.37	1800
COc1nc(C2CC2)ncc1-c1nc2c(n1C(C)C)[C@]1(C(=O)Nc3cc(Cl)ccc31)N(c1cc(Cl)cnc1C)C2=O [Example R-159, (R)-6-chloro-5′-(5-chloro-2-methylpyridin-3-yl)-2′-(2-cyclopropyl-4-methoxypyrimidin-5-yl)-3′-isopropyl-3′H-spiro[dihydroindole-3,4′-pyrrolo[3,4-d]imidazole]-2,6′(5′H)-dione]	0.468	5330
COc1cc(N(C)CCO)ccc1-c1nc2c(n1C(C)C)[C@]1(C(=O)Nc3cc(Cl)ccc31)N(c1cc(Cl)ccc1C)C2=O [Example R-162, (R)-6-chloro-5′-(5-chloro-2-methylphenyl)-2′-(4-((2-hydroxyethyl)(methyl)amino)-2-methoxyphenyl)-3′-isopropyl-3′H-spiro[dihydroindole-3,4′-pyrrolo[3,4-d]imidazole]-2,6′(5′H)-dione]	0.12	782
COc1cc(OCCF)ncc1-c1nc2c(n1C(C)C)[C@]1(C(=O)Nc3cc(Cl)ccc31)N(c1cccc(Cl)c1)C2=O [Example R-177, (R)-6-chloro-5′-(3-chlorophenyl)-2′-(6-(2-fluoroethoxy)-4-methoxypyridin-3-yl)-3′-isopropyl-3′H-spiro[dihydroindole-3,4′-pyrrolo[3,4-d]imidazole]-2,6′(5′H)-dione]	0.109	4250
CCOc1ncc(-c2nc3c(n2C(C)C)[C@]2(C(=O)Nc4cc(Cl)ccc42)N(c2cc(F)cc(Cl)c2)C3=O)c(OC)n1 [Example R-180, (R)-6-chloro-5′-(3-chloro-5-fluorophenyl)-2′-(2-ethoxy-4-methoxypyrimidin-5-yl)-3′-isopropyl-3′H-spiro[dihydroindole-3,4′-pyrrolo[3,4-d]imidazole]-2,6′(5′H)-dione]	0.679	2170
COc1ncc(-c2nc3c(n2C(C)C)[C@@]2(C(=O)Nc4cc(Cl)ccc42)N(c2ccc(F)c(Cl)c2)C3=O)c(OC)n1 [Example S-3, (S)-6-chloro-5′-(3-chloro-4-fluorophenyl)-2′-(2,4-dimethoxypyrimidin-5-yl)-3′-isopropyl-3′H-spiro[dihydroindole-3,4′-pyrrolo[3,4-d]imidazole]-2,6′(5′H)-dione]	0.00492	174
COc1cc(F)ccc1-c1nc2c(n1C(C)C)[C@@]1(C(=O)Nc3cc(Cl)ccc31)N(c1cc(Cl)ccc1C)C2=O [Example S-4, (S)-6-chloro-5′-(5-chloro-2-methylphenyl)-2′-(4-fluoro-2-methoxyphenyl)-3′-isopropyl-3′H-spiro[dihydroindole-3,4′-pyrrolo[3,4-d]imidazole]-2,6′(5′H)-dione]	0.00337	7.92
COc1ccccc1-c1nc2c(n1C(C)C)[C@@]1(C(=O)Nc3cc(Cl)ccc31)N(c1cc(Cl)ccc1C)C2=O [Example S-5, (S)-6-chloro-5′-(5-chloro-2-methylphenyl)-3′-isopropyl-2′-(2-methoxyphenyl)-3′H-spiro[dihydroindole-3,4′-pyrrolo[3,4-d]imidazole]-2,6′(5′H)-dione]	0.00322	25.4
CCc1ccccc1-c1nc2c(n1C(C)C)[C@@]1(C(=O)Nc3cc(Cl)ccc31)N(c1cc(Cl)ccc1C)C2=O [Example S-7, (S)-6-chloro-5′-(5-chloro-2-methylphenyl)-2′-(2-ethylphenyl)-3′-isopropylisopropyl-3′H-spiro[dihydroindole-3,4′-pyrrolo[3,4-d]imidazole]-2,6′(5′H)-dione]	0.0732	1270
COc1ccc(-c2nc3c(n2C(C)C)[C@@]2(C(=O)Nc4cc(Cl)ccc42)N(c2cc(Cl)ccc2C)C3=O)c(OC)n1 [Example S-8, (S)-6-chloro-5′-(5-chloro-2-methylphenyl)-2′-(2,6-dimethoxypyridin-3-yl)-3′-isopropyl-3′H-spiro[dihydroindole-3,4′-pyrrolo[3,4-d]imidazole]-2,6′(5′H)-dione]	0.00329	10.3
COc1cnccc1-c1nc2c(n1C(C)C)[C@@]1(C(=O)Nc3cc(Cl)ccc31)N(c1cc(Cl)ccc1C)C2=O [Example S-10, (S)-6-chloro-5′-(5-chloro-2-methylphenyl)-3′-isopropyl-2′-(3-methoxypyridin-4-yl)-3′H-spiro[dihydroindole-3,4′-pyrrolo[3,4-d]imidazole]-2,6′(5′H)-dione]	0.00277	124
COc1cc(C#N)ccc1-c1nc2c(n1C(C)C)[C@@]1(C(=O)Nc3cc(Cl)ccc31)N(c1cc(Cl)ccc1C)C2=O [Example S-12, (S)-4-(6-chloro-5′-(5-chloro-2-methylphenyl)-3′-isopropyl-2,6′-dioxo-5′,6′-dihydro-3′H-spiro[dihydroindole-3,4′-pyrrolo[3,4-d]imidazole]-2′-yl)-3-methoxybenzonitrile]	0.00355	5.27
COc1ccc(C#N)cc1-c1nc2c(n1C(C)C)[C@@]1(C(=O)Nc3cc(Cl)ccc31)N(c1cc(Cl)ccc1C)C2=O [Example S-13, (S)-3-(6-chloro-5′-(5-chloro-2-methylphenyl)-3′-isopropyl-2,6′-dioxo-5′,6′-dihydro-3′H-spiro[dihydroindole-3,4′-pyrrolo[3,4-d]imidazole]-2′-yl)-4-methoxybenzonitrile]	0.00255	5.95
CCc1ccc(Cl)cc1N1C(=O)c2nc(-c3cnc(OC)nc3OC)n(C(C)C)c2[C@@]12C(=O)Nc1cc(Cl)ccc12 [Example S-15, (S)-6-chloro-5′-(5-chloro-2-ethylphenyl)-2′-(2,4-dimethoxypyrimidin-5-yl)-3′-isopropyl-3′H-spiro[dihydroindole-3,4′-pyrrolo[3,4-d]imidazole]-2,6′(5′H)-dione]	0.00162	10.9
COc1ncc(-c2nc3c(n2C(C)C)[C@@]2(C(=O)Nc4cc(Cl)ccc42)N(c2cc(Cl)cn(C)c2=O)C3=O)c(OC)n1 [Example S-16, (S)-6-chloro-5′-(5-chloro-1-methyl-2-oxo-1,2-dihydropyridin-3-yl)-2′-(2,4-dimethoxypyrimidin-5-yl)-3′-isopropyl-3′H-spiro[dihydroindole-3,4′-pyrrolo[3,4-d]imidazole]-2,6′(5′H)-dione]	0.00339	3560
